This is an account of results in patent publication US6274611A, “Methods and compositions for inhibition of viral replication” (The United States of America as represented by the …, priority 1999, dated 2001).

In series [1] the target is human recombinant CKII (ααββ form) (Homo sapiens, UniProt P68400). The series can be described thus: Human recombinant CKII enzyme kinetics. The series is classed as biochemical. Conditions: for inhibition of CKII enzymatic activity: 37° C. How it is done:
Reactions were carried out at 37° C. in 0.025 M HEPES (pH 7.4), 0.15 M KCl, 0.01 M MgCl2, 1.4 mM β-mercaptoethanol, 1 mM DTT, 1 mM EGTA, 10% glycerol, 0.32 mM synthetic CKII peptide, ([…]), 1 μU/μl CKII, and the indicated concentrations of ATP and test agents. Unincorporated [γ-^32 P] ATP was removed by spotting reactions onto P81 phosphocellulose paper (Whatman) and washing in 0.75 mM phosphoric acid then acetone.

Another series deals with HIV. The settings on record: acutely infected H9 cells (baicalin also CEM-ss cells and PBMCs); cited from earlier work.
In series [2] the test system is chrysin-binding proteins p44, p40, p29, p28 (subunits of CKII). The series can be described thus: Chrysin affinity resin binding reaction with competitor compounds in OM-10.1 cell lysates (SDS-PAGE silver stain, anti-CKII immunoblot). More on the design: species or system human. Conditions: for effect of competitor on binding of proteins (p44, p40, p29, p28) to the chrysin-resin: competitor 10 μM added to lysate of TNF-α-induced OM-10.1 cells; for effect of competitor on binding of proteins (p44, p40, p29, p28) to the chrysin-resin / effect of competitor on binding of p28 to chrysin resin: silver staining; for effect of competitor on immunodetection of α, α' and β subunits of CKII bound to the chrysin resin / effect of competitor on binding of p28 to chrysin resin: competitor 10 μM; for effect of competitor on immunodetection of α, α' and β subunits of CKII bound to the chrysin resin: anti-CKII immunoblot. How it is done:
The affinity resin was made by attachment of 4'-OH-chrysin chrysin (apigenin) to epoxy-activated Sepharose 6B, resulting in chrysin in an ether-linkage. The resin (2 g, dry) was washed with water then 0.1 N NaOH, added to 60 ml 0.01 M apigenin in 0.1 N NaOH (or 0.1 N NaOH only for a non-derivatized control resin), and incubated with gentle mixing for 24 hr at 37° C. The resin then underwent a series of washes (Ghenbot, et al., Prot. Expr. Purif. Vol. 3, pp. 470-478 (1992)) and the residual reactive groups capped with 0.1 M ethanolamine for 16 hr at 37° C. After washing with water, the resin was stored at 4° C. in 0.2% NaN3.
(§1) OM-10.1 and HL-60 cells as described in Example 1 were propagated in RPMI-1640 supplemented with 10% heat-inactivated fetal calf serum, 2 mM glutamine, and 1% Pen-Strep. Induction of HIV-1 using TNF-α (Butera, S. T., et al, J. Virol. Vol. 65, pp. 4645-4653 (1991)), and antiviral assays (Butera, S. T., et al MoL Med. Vol. 1, pp. 758-767 (1995), Critchfield, J. W., et al., AIDS Res. Hum. Retr. Vol. 12, pp. 39-46 (1996)), were performed as described. For binding studies, cultures were grown to a density of 106 /ml, washed twice with cold PBS, and the cell pellet either flash-frozen in dry ice/ethanol for storage at -70° C., or immediately lysed in 1 ml cold lysis buffer/10^7 cells. Lysis buffer consisted of 0.02 M HEPES (pH 7.4), 0.5% Triton X-100, 0.3 M NaCl, 20 mM NaF, 1 mM each of Na4 P2 O7, Na3 VO4, DTT, EGTA and EDTA, 1 μg/ml each of leupeptin, aprotinin, and pepstatin, 0.5 mM PMSF, and 50 nM okadaic acid. Lysates were incubated on ice for 15 min, centrifuged at 10,000×g for 15 minutes at 4° C., then the supernatants were either used immediately or stored -70° C. For binding reactions with the chrysin affinity resin, lysates (2 ml) were diluted 1:2 with ice-cold 0.02 M HEPES (pH 7.4), then competitor compounds (or 0.1% final DMSO as the control), as indicated, were added to a final concentration of 10 μM and the lysates incubated on ice for 30 min. Chrysin-Sepharose (0.2 ml) was then added and the reactions gently mixed for 1 hr at 4° C. After 3 washes with cold 0.02 M HEPES (pH 7.4), 0.15 M NaCl, 0.25% Triton X-100, bound proteins were eluted with 2 ml 0.02 M ethanolamine (pH 9.5), 0.1% SDS, 0.5 mM chrysin, 1.0% DMSO at 23° C. Samples were concentrated via centrifugation at 23° C. through a 10 kD cut-off membrane (Centricon), then analyzed by SDS-PAGE (8%), and silver stained.
For Western analysis, proteins were transferred to PVDF and probed with a combination of two antibody reagents, one recognizing an epitope common to both the α and α' subunit of CKII (Upstate Biotechnology) and the other reacting with the β subunit of CKII (a gift from D. Litchfield, University of Western Ontario). Final detection was with enhanced chemiluminescence (Amersham).
To identify the targets of HIV-1 inhibitory flavonoids, Sepharose was derivatized with the flavonoid chrysin and interacted with lysates from OM-10.1 cells as described in Example I. Cultures induced to maximally express HIV-1 (24 hr treatment with TNF-α) were utilized to ensure the presence of both cellular and viral proteins.
To further confirm that the chrysin-binding proteins were indeed the subunits of CKII, resin-binding reactions were performed using a selective inhibitor of CKII activity, 5,6 dichloro-1-β-D-ribofuranosylbenzimidazole (DRB), and the results analyzed by silver staining and anti-CKII immunoblotting. […] Since the apparent mass of the β chain of CKII is increased by phosphorylation (Luscher, B. L., et al. Eur. J. Biochem. Vol. 220, pp. 521-526 (1994)), it was possible that p28 represented an unphosphorylated form of p29. […] Furthermore, the major p28 band observed by silver stain was absent by immunoblot analysis. This absence was not due to an inability of the CKIIβ antibody to recognize dephosphorylated CKIIβ, which had lower apparent mass following alkaline phosphatase treatment. […]

Series [3] deals with HIV-1. The settings on record: latently and chronically infected cells; Butera et al. 1995, Critchfield et al. 1996; cited from earlier work.
The test system of series [4] is HIV-1. As to the kind of experiment: Down modulation of cell surface CD4 in TNF-α-induced OM-10.1 cultures. The series is classed as cell-based, HIV-1 in OM-10.1 cells. The source says:
Critical tools for studying the efferent phase of the HIV life cycle are the latently infected cell lines such as UI, ACH2, J1, and OM-10.1. […] HIV activation can also be achieved by phorbol esters such as PMA (phorbol -12-myristate-13-acetate).
The CD4 response is a direct consequence of viral activation and allows a rapid, convenient and highly reproducible assessment of treatments that modify TNF-α expression of HIV from its latent state. In addition, the down modulation of CD4 is not affected by inhibitors of virion assembly or release such as protease inhibitors. Thus, by measuring cell surface CD4 and a virion constituent such as reverse transcriptase (RT), it is possible to discriminate between inhibition of HIV assembly, release and earlier events.

In series [5] the test system is HIV-1. The series can be described thus: HIV-1 activation in TNF-α-treated OM-10.1 cultures, culture supernatant reverse transcriptase activity. In kind it is cell-based, HIV-1 in OM-10.1 cells. The settings on record: for HIV-1 inhibitory activity in the OM-10.1 induction system: OM-10.1 cells, TNF-α induction. How it is done:
(§2) FIG. 2 is a graph showing the inhibition of HIV-1 expression and toxicity in OM-10.1 cells by DRB, and similarity to inhibition imposed by chrysin and PD 144795. Reverse transcriptase activity (--.ae butted.--) was measured (as taught in Butera et al, Mol. Med. vol. 1, pp. 758-767 (1995)) in culture supernatants 48 hr after HIV activation, and cell viability (--.tangle-solidup.--) was assessed at 24 hr by flow cytometric analysis of propidium iodide exclusion. Inset: A graph showing the inhibition of HIV-1 expression in OM-10.1 cells by chrysin- (--Δ--) and PD 144795 (--.star.--) treatment of HIV-1.
as §1
HIV-1 activation experiments were conducted in the presence or absence of DRB. […] Furthermore, the effective dose range of DRB (1-10 μM) was nearly identical to that of the other compounds (FIG. 2, inset), and toxicity over the effective dose range for the other compounds was also negligible.

The next series has as its system OM-10.1 cells. As to the kind of experiment: OM-10.1 culture viability (flow cytometric propidium iodide exclusion). The series is classed as cell-based, human. The settings on record: OM-10.1 cultures; viability assessed at 24 hr. How it is done:
as §2

For the next series, the system named is casein kinase I. Conditions: Shugar 1994; cited from earlier work.
In a further series the test system is NF-κB. As to the kind of experiment: NF-κB activation and I-κB degradation upon cellular activation. The series is classed as cell-based.

“Also recorded” adds a separate entry of the source.

Sequence of human recombinant CKII (ααββ form) (P68400 whole entry): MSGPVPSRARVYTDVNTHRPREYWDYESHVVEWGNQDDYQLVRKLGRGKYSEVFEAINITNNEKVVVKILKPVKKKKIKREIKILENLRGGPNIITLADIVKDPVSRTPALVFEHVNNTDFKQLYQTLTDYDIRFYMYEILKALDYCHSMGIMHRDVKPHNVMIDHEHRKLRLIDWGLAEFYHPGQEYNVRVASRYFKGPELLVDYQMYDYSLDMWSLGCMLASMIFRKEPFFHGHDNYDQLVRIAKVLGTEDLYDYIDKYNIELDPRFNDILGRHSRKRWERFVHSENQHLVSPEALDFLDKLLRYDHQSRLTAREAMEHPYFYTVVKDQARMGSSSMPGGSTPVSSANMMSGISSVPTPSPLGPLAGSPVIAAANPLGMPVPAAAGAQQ
Sequence of human recombinant CKII (ααββ form) (P67870 whole entry partner): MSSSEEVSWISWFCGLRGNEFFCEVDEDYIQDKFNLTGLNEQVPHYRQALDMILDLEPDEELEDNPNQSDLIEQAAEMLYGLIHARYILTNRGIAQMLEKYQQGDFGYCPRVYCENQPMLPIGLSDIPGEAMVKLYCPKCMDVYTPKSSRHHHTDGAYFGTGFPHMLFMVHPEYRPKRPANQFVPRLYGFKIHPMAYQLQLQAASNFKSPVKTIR

For `O=c1cc(-c2ccccc2)oc2cc(O)cc(O)c12` [chrysin], in [1], the “kinetics of CKII inhibition with respect to ATP” value is recorded as “competitive kinetics with respect to ATP” and the “inhibition of CKII enzymatic activity” value is “inhibit human recombinant CKII enzymatic activity”. Moreover, in the series with HIV, the “inhibition of HIV replication in acutely infected cells” value is reported as “significant inhibitory activity”. In series [2], the “effect of competitor on binding of proteins (p44, p40, p29, p28) to the chrysin-resin” value (“effect of competitor … to the chrysin-resin” for short) is reported as “specifically inhibited in their binding to the resin”; the “effect of competitor on immunodetection of α, α' and β subunits of CKII bound to the chrysin resin” value is reported as “eliminated their immunodetection”. Besides, the “inhibition of HIV transcription” value in the series with HIV-1 [3] is “potent inhibitors”.
Turning to `O=C1CN=C(c2ccc[nH]2)c2cc(Cl)ccc2N1` [Ro 5-3335], the “inhibition of down modulation of CD4” value in the series with HIV-1 [4] was “inhibits both of these measures to a similar extent”. Also, the “inhibition of RT” value in the series on HIV-1 [5] (TNF-α-induced OM-10.1 cultures) is reported as “inhibits both of these measures to a similar extent”.
With `NCCNS(=O)(=O)c1ccc(Cl)c2ccncc12` [CKI-7], the “HIV-1 inhibitory activity in the OM-10.1 induction system” value (from here on “HIV-1 inhibitory activity”) in the series on HIV-1 [5] is listed as “without HIV-1 inhibitory activity”.
Regarding `O=C(O)[C@H]1O[C@@H](Oc2cc3oc(-c4ccccc4)cc(=O)c3c(O)c2O)[C@H](O)[C@@H](O)[C@@H]1O` [baicalin], the “inhibition of HIV replication in acutely infected cells” value in the series on HIV was “inhibits HIV replication”.
Regarding `COc1ccc2c(c1)c(OC(C)C)c(C(N)=O)[s+]2[O-]` (stereo not shown) [PD 144795], the “inhibition of CKII enzymatic activity” value in series [1] is given as “inhibition of CKII enzyme activity”. Moreover, in series [2], the “effect of competitor … to the chrysin-resin” value was “pattern of binding inhibition identical to that of DRB” and the “effect of competitor on binding of p28 to chrysin resin” value is “did not alter”. Also, the “inhibition of HIV transcription” value in the series on HIV-1 [3] is on record as “inhibiting HIV transcription at micromolar concentrations”. For the same compound, the “HIV-1 inhibitory activity” value with HIV-1 [5] is given as “HIV-inhibitory”.
On to `COc1ccc([C@@H]2CC(=O)c3c(O)cc(O[C@@H]4O[C@H](CO[C@@H]5O[C@@H](C)[C@H](O)[C@@H](O)[C@H]5O)[C@@H](O)[C@H](O)[C@H]4O)cc3O2)cc1O` [hesperidin], for which the “effect of competitor … to the chrysin-resin” value in series [2] is reported as “no effect”. Also, the “HIV-1 inhibitory activity” value in the series with HIV-1 [5] was “lacking HIV-1 inhibitory activity”.
Consider `O=c1cc(-c2ccc(O)cc2)oc2cc(O)cc(O)c12` [apigenin], for which the “effect of competitor … to the chrysin-resin” value in series [2] is listed as “specifically inhibited in their binding to the resin”. The “HIV-1 inhibitory activity” value in the series with HIV-1 [5] is listed as “HIV-inhibitory”.
The corresponding values for `Oc1cc(O)c2c(c1)OC(c1ccc(O)c(O)c1)C(O)C2` (stereo not shown) [catechin] are “no effect” and “lacking HIV-1 inhibitory activity”.
In the case of `OC[C@H]1O[C@@H](n2cnc3cc(Cl)c(Cl)cc32)[C@H](O)[C@@H]1O` [DRB, 5,6-dichloro-1-β-D-ribofuranosylbenzimidazole], in the series on OM-10.1 cells, the “culture viability / toxicity over the effective dose range” value was “did not decline”. Besides, in series [2], the “effect of competitor … to the chrysin-resin” value was “prevented the binding of the same proteins that were competed by free chrysin”; the “effect of competitor on immunodetection of α, α' and β subunits of CKII bound to the chrysin resin” value is listed as “eliminated their immunodetection”; the “effect of competitor on binding of p28 to chrysin resin” value was “the only exception being p28”. Besides, the “inhibitory activity against casein kinase I” value with casein kinase I was “appreciable inhibitory activity”. In the series on HIV-1 [5] (Human immunodeficiency virus 1, TNF-α-treated OM-10.1 cultures, RT measured 48 hr after HIV activation, read-out: ED50, reduction in culture supernatant reverse transcriptase activity), the EC50 was ~2 µM. The “HIV-1 inhibitory activity” value in the series with HIV-1 [5] is given as “markedly inhibited; also recorded: potently inhibits”. Moreover, the “effective dose range for inhibition of HIV-1 expression” value in the series on HIV-1 [5] (TNF-α-treated OM-10.1 cultures) lay within 1 to 10 µM. Besides, the “NF-κB activation and function” value in the series on NF-κB (TNF-α-treated OM-10.1 cultures) is on record as “appeared normal”. Further, the “degradation of I-κB upon cellular activation” value in the series with NF-κB (in the presence of compound) is given as “Normal degradation”.
